Source: patent publication US9345678B2, “Prostanoid receptor agonist compounds and methods of use for same” (ALLERGAN, INC., priority 2013, dated 2016)
Where two headings read alike, the source gives them in different places.

Experiments:
[1] = system: rat endotoxin-induced uveitis (EIU) model; test: Rat endotoxin-induced uveitis (EIU) model: cell infiltrate and protein leakage in the aqueous humor; assay type: in vivo; details: for Protein concentration in the aqueous humor: FIG. 11B; for Cell infiltrate in the aqueous humor: FIG. 9C
Description: FIGS. 9A-D show the results of experiments where cicaprost was applied topically to inhibit inflammation in a rat endotoxin-induced uveitis (EIU) model. Here, the rats were challenged with LPS, and the resulting inflammatory reaction was quantified by measuring leukocyte cell infiltration in the aqueous humor and by measuring the amount of protein leakage into the aqueous humor. In the Figures, “LPS” corresponds to the control where no other topical treatment was applied. “Vehicle” corresponds to an eye drop ophthalmic vehicle solution containing no drug, and which otherwise comprises 0.1% polysorbate 80 in an aqueous medium. “Pred-Forte” corresponds to an ophthalmic solution of 1% prednisolone acetate. “Acular” corresponds to an ophthalmic solution of 0.4% ketorolac. The concentrations of cicaprost used in the ophthalmic vehicle solution were 0.001%, 0.01%, and 0.1%.
FIGS. 11A-B show the results of experiments measuring cell infiltrate and protein in the aqueous humor in a rat EIU model challenged with LPS, where the rats were challenged in a similar manner as described previously. Cicaprost, as well as the cicaprost prodrugs described above in Formulas II-V, were separately topically dosed as a 0.1% ophthalmic solution.

[2] = system: cytokine secretion in human monocyte derived dendritic cells; test: Cytokine secretion in LPS-stimulated human monocyte derived dendritic cells; assay type: cell-based
Protocol: FIGS. 8A-F illustrate the effect of different IP receptor agonists and antagonists on cytokine secretion in human monocyte derived dendritic cells stimulated with LPS. In these experiments, the cells were exposed to cicaprost, cicaprost in conjunction with DMSO, and cicaprost with an IP receptor antagonist (Formula VI). Cytokines measured for were TNF-α, IL-6, MCP-1, MIP-1β, IL-8, and IL-12p70, corresponding to FIGS. 8A through 8F, respectively. The concentration ranges of cicaprost were 0 nM, 0.1 nM, 1 nM, 10 nM, 100 nM, and 1000 nM. The concentration of Formula VI IP receptor antagonist used was 10 uM throughout. The concentration of the various cytokines tested for were measured in ng/ml. The concentration of the DMSO used in conjunction with cicaprost was at 0.1%.

[3] = system: corneal wound (anterior keratectomy), donated human eyes; test: Corneal wound closure in an anterior segment model of donated human eyes; details: 0.1% cicaprost, two drops at 0 and 9 hours, wound area at 18 hours, vs vehicle-dosed eye, 3 pairs of donor eyes
Protocol: The effect of cicaprost on corneal wound healing was evaluated in an anterior segment model using 3 pairs of donated human eyes. Wounding (anterior keratectomy, AK) was induced by scoring the cornea in 8 mm diameter, and the epithelium was removed using a gill knife. The anterior segment of the eye was dissected and cultured in complete medium on a rotating platform for several days to maintain tissue differentiation. Two drops (approximately 50 μl per drop) of 0.1% cicaprost were dosed at 0 and 9 hours on one eye (“Cp”), while the other eye (“CN”) was treated with vehicle (0.1% polysorbate 80 in saline). The initial wound and the progression of wound closure was visualized with 0.015% fluorescein, and the wound area recorded at 0 and 18 hours, as shown in FIG. 12.

[4] = system: TNF-α secretion in human macrophages; test: Effect on TNF-α secretion in LPS-stimulated human macrophages in vitro; assay type: cell-based; details: Macrophage, LPS stimulation, FIG. 6
Protocol: (§1) FIGS. 1A-B illustrate the effect of cicaprost on IL-8 secretion on in vitro human macrophages. The human macrophages were simulated either with lipopolysaccharide (LPS), illustrated in FIG. 1A, or with TNF-α, illustrated in FIG. 1B. The labels on the x-axis correspond respectively to tests measuring IL-8 concentration with no stimulus, a control of only stimulant vehicle (i.e., LPS or TNF-α), and stimulant vehicle in conjunction with cicaprost concentrations of 0.1 nM, 1 nM, 10 nM, 100 nM, and 1000 nM. The y-axis tracks the percentage change of concentration of IL-8 versus the control stimulant vehicle, which is set at 100%.
FIG. 6 illustrates the effect of cicaprost on TNF-α secretion on in vitro human macrophages. The human macrophages were simulated with LPS. The labeling of the graphs is otherwise the same as described above.

[5] = system: MIP-1α secretion in human macrophages; test: Effect on MIP-1α secretion in stimulated human macrophages in vitro; assay type: cell-based; details: Macrophage
Protocol: as §1
FIGS. 3A-B illustrate the effect of cicaprost on MIP-1α secretion on in vitro human macrophages. The human macrophages were simulated either with LPS, illustrated in FIG. 3A, or with TNF-α, illustrated in FIG. 3B. The labeling of the graphs is otherwise the same as described above.

[6] = system: RANTES secretion in human macrophages; test: Effect on RANTES secretion in stimulated human macrophages in vitro; assay type: cell-based; details: Macrophage
Protocol: as §1
FIGS. 5A-B illustrate the effect of cicaprost on RANTES secretion on in vitro human macrophages. The human macrophages were simulated either with LPS, illustrated in FIG. 5A, or with TNF-α, illustrated in FIG. 5B. The labeling of the graphs is otherwise the same as described above.

[7] = system: rat endotoxin-induced uveitis (EIU) model; test: Rat EIU model: cytokine concentration in the aqueous humor; assay type: in vivo; details: LPS challenge, topical cicaprost 0.001%, 0.01%, 0.1%, vs vehicle
Protocol: FIGS. 10A-C depict the results of experiments measuring cytokine expression in a rat EIU model, where the rats were challenged with LPS. Cytokine concentration (here, MCP-1, RANTES, and IL-6) was measured subsequent to the LPS challenge, after topical application of cicaprost at concentrations from 0.001%, 0.01%, and 0.1%, together with a control eye drop vehicle (abbreviated “Vehicle” in the figures) where no cicaprost was present.

[8] = system: MIP-1β secretion in human macrophages; test: Effect on MIP-1β secretion in stimulated human macrophages in vitro; assay type: cell-based; details: Macrophage
Protocol: as §1
FIGS. 4A-B illustrate the effect of cicaprost on MIP-1β secretion on in vitro human macrophages. The human macrophages were simulated either with LPS, illustrated in FIG. 4A, or with TNF-α, illustrated in FIG. 4B. The labeling of the graphs is otherwise the same as described above.

[9] = system: IL-8 secretion in human macrophages; test: Effect on IL-8 secretion in stimulated human macrophages in vitro; assay type: cell-based; details: Macrophage, LPS stimulation, FIG. 1A
Protocol: as §1, with “The” for “FIGS. 1A-B illustrate the effect of cicaprost on IL-8 secretion on in vitro human macrophages. The”

[10] = system: MCP-1 secretion in human macrophages; test: Effect on MCP-1 secretion in stimulated human macrophages in vitro; assay type: cell-based; details: Macrophage
Protocol: as §1
FIGS. 2A-B illustrate the effect of cicaprost on MCP-1 secretion on in vitro human macrophages. The human macrophages were simulated either with LPS, illustrated in FIG. 2A, or with TNF-α, illustrated in FIG. 2B. The labeling of the graphs is otherwise the same as described above.

[11] = system: VEGF secretion in human macrophages; test: Effect on VEGF secretion in TNF-α-stimulated human macrophages in vitro; assay type: cell-based; details: Macrophage, TNF-α stimulation, FIG. 7
Protocol: as §1
FIG. 7 illustrates the effect of cicaprost on VEGF secretion on in vitro human macrophages. The human macrophages were simulated with TNF-α. The labeling of the graphs is otherwise the same as described above.

[12] = LPS challenge, topical 0.1% ophthalmic solution, vs control vehicle

Compound: CCC#CC[C@H](C)[C@H](O)C#C[C@@H]1[C@H]2C/C(=C/COCC(=O)O)C[C@H]2C[C@H]1OC(=O)CC [Formula III]
- Protein concentration in the aqueous humor [1, 12]: approximately comparable to cicaprost in effect

Compound: CCC#CC[C@H](C)[C@H](O)C#C[C@@H]1[C@H]2C/C(=C/COCC(=O)O)C[C@H]2C[C@H]1OC(C)=O [Formula II]
- Protein concentration in the aqueous humor [1, 12]: some reduction in protein concentration

Compound: CCC#CC[C@H](C)[C@@H](C#C[C@@H]1[C@H]2C/C(=C/COCC(=O)O)C[C@H]2C[C@H]1O)OC(C)=O [Formula IV]
- Protein concentration in the aqueous humor [1, 12]: some reduction in protein concentration

Compound: C=C/C(=C\C=C\Cc1ccc(NC2=NCCN2)cc1)OCC [Formula VI, reference compound]
- Cytokine expression on addition of the IP receptor antagonist to cicaprost ([2]; Formula VI 10 uM with cicaprost 0-1000 nM): caused cytokine expression to remain elevated in comparison

Compound: CCC#CC[C@H](C)[C@@H](C#C[C@@H]1[C@H]2C/C(=C/COCC(=O)O)C[C@H]2C[C@H]1O)OC(=O)CC [Formula V]
- Protein concentration in the aqueous humor [1, 12]: some reduction in protein concentration

Compound: CCC#CC[C@H](C)[C@H](O)C#C[C@@H]1[C@H]2C/C(=C/COCC(=O)O)C[C@H]2C[C@H]1O [cicaprost]
- Percentage of wound closure [3]: showed an improvement in the percentage of wound closure
- IC50 [4]: 0.14 nM
- Cytokine expression (TNF-α, IL-6, MCP-1, MIP-1β, IL-8, IL-12p70) ([2]; cicaprost 0.1-1000 nM with 0.1% DMSO): increasing inhibition of cytokine expression
- Cytokine expression (TNF-α, IL-6, MCP-1, MIP-1β, IL-8, IL-12p70) ([2]; cicaprost 0.1-1000 nM, vs 0 nM control): increasing inhibition of cytokine expression
- Cell infiltration in the aqueous humor ([1]; LPS challenge, topical 0.1% ophthalmic solution, vs control vehicle, FIG. 11A): caused a reduction in cell infiltration
- Protein concentration in the aqueous humor [1, 12]: reduced protein concentration in the aqueous humor
- Cell infiltrate in the aqueous humor ([1]; topical 0.1% cicaprost solution): reduced cell infiltrate to near-zero levels
- Cell infiltrate in the aqueous humor ([1]; topical cicaprost 0.001%, 0.01%, 0.1%): increasing effect on lowering cell infiltrate
- Protein in the aqueous humor ([1]; topical cicaprost 0.001-0.1%, especially 0.1%, FIG. 9D): also reduced
- IC50 ([5]; LPS stimulation, FIG. 3A, read-out: IC50 on MIP-1α secretion stimulated by LPS): 0.3 nM
- IC50 ([5]; TNF-α stimulation, FIG. 3B, read-out: IC50 on MIP-1α secretion): 0.6 nM
- IC50 ([6]; LPS stimulation, FIG. 5A, read-out: IC50 on RANTES secretion stimulated by LPS): 0.8 nM
- IC50 ([6]; TNF-α stimulation, FIG. 5B, read-out: IC50 on RANTES secretion): 1.6 nM
- IL-6 concentration [7]: reduced the concentration of the monitored cytokines
- MCP-1 concentration [7]: reduced the concentration of the monitored cytokines
- RANTES concentration [7]: reduced the concentration of the monitored cytokines
- IC50 ([8]; LPS stimulation, FIG. 4A, read-out: IC50 on MIP-1β secretion stimulated by LPS): 0.5 nM
- IC50 ([8]; TNF-α stimulation, FIG. 4B, read-out: IC50 on MIP-1β secretion): 0.7 nM
- IC50 [9]: 0.8 nM
- IC50 ([10]; LPS stimulation, FIG. 2A, read-out: IC50 on MCP-1 secretion stimulated by LPS): 0.7 nM
- IC50 ([10]; TNF-α stimulation, FIG. 2B, read-out: IC50 on MCP-1 secretion): 0.5 nM
- EC50 [11]: 2.3 nM
